In patent publication US20240309016A1, “MACROCYCLIC HETEROCYCLE COMPOUNDS AND USE THEREOF” (TAKEDA PHARMACEUTICAL COMPANY LIMITED, priority 2023, published 2024):
Where two headings read alike, the source gives them in different places.

Tests used:
human OX2 receptor = target: T1, human OX2 receptor (Homo sapiens, UniProt O43614); test: Measurement of orexin type 2 receptor agonist activity (Experimental Example 3; calcium 5 dye, FLIPR Tetra); type: cell-based; details: compound at 1 μM; CHO cells expressing human OX2 receptor; DMSO = 0%, 10 nM orexin A (human) = 100%
T1 construct: expressed in transfected cells
T1 sequence (O43614 1-444): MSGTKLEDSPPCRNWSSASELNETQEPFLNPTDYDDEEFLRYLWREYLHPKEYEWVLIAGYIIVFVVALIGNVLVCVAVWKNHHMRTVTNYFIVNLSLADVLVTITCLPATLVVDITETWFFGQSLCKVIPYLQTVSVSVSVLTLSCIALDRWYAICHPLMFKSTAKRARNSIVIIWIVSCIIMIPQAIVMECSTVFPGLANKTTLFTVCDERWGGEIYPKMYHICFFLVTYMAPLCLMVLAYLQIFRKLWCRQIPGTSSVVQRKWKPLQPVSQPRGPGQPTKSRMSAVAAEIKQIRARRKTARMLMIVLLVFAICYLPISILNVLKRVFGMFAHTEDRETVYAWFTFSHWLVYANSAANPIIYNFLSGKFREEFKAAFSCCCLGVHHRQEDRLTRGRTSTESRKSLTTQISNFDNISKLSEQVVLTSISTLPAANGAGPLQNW
Procedure: In order to obtain cell clones that stably express human orexin type 2 receptor, human orexin type 2 (residues 1-444, NCBI Reference Sequence: AK314279) was constructed in a pcDNA3.1 (+) vector (Invitrogen) to express in mammalian cells. This plasmid DNA was transfected into CHO-K1 cells by electroporation, and stable clones were obtained by limiting dilution using resistance to G418 as a selection marker.
CHO cells in which human OX2 receptor was forcibly expressed were seeded at 5,000 cells/well into a 384-well black transparent bottom plate (Costar) in 25 ul complete media, and were then incubated at 37° C., 5% CO2 for 1 day. The next day, 25 ul of 2× calcium 5 dye (Molecular Devices) in assay buffer (HBSS (Thermo Fisher Scientific), 20 mM HEPES (Thermo Fisher Scientific), 2.5 mM probenecid). After incubation in a 5% CO2 incubator at 37° C. for 40 minutes, it was incubated at room temperature for another 20 minutes. Add 5 μL/well of the test compound diluted with assay buffer B (HBSS, 20 mM HEPES), using FLIPR Tetra (Molecular Devices) to measure the fluorescence value every 1 second for 1 minute, and then every 2 seconds for 1 minute. It was measured for 1 minute and 40 seconds. The amount of fluorescence value when DMSO is added instead of the test compound is defined as 0%, and the amount of fluorescence value when orexin A (human) (Peptide Institute) with a final concentration of 10 nM is added is defined as 100%. The activity (%) of the test compound was calculated.

Row | Structure (SMILES) | ring closure, yield of all isomers (from CCS(=O)(=O)N[C@@H]1[C@H](Cc2cccc(Oc3nc(NCC(=O)O)ccc3C)c2F)NCC1(F)F, amide bond, HATU / DIPEA, DMF, 1.74 mM, 25.0 °C, 12.0 h) | OX2R agonist activity (1 μM, %) (human OX2 receptor) | ring closure, yield of all isomers (from CCS(=O)(=O)N[C@@H]1[C@H](Cc2cccc(C(F)(F)c3nc(CN)ccc3C)c2F)NCC1(F)F, other bond, CDI/DIPEA, THF, 11.0 mM, 45.0 °C, 16.0 h) | ring closure, yield of all isomers (from CCS(=O)(=O)N[C@@H]1[C@H](Cc2cccc(Cc3nc(O[C@@H](C)C(=O)O)ccc3C)c2F)NCC1(F)F, amide bond, HATU/DIPEA, DMF, 2.83 mM, 25.0 °C, 16.0 h)
1 | CCS(=O)(=O)N[C@@H]1[C@@H]2Cc3cccc(c3F)Oc3nc(ccc3C)NCC(=O)N2CC1(F)F [Example 99, N-[(15aS,16R)-17,17,20-trifluoro-7-methyl-1-oxo-2,3,15a,16,17,18-hexahydro-1H,15H-4,8-(azeno)-14,10-(metheno)pyrrolo[1,2-j][1,7,10]oxadiazacyclo-heptadecin-16-yl]ethanesulfonamide] | 13.3% | 97% |  | 
2 | CCS(=O)(=O)N[C@@H]1[C@@H]2Cc3cccc(c3F)C(F)(F)c3nc(ccc3C)CNC(=O)N2CC1(F)F [Example 100, N-[(15aS,16R)-9,9,17,17,20-pentafluoro-7-methyl-1-oxo-2,3,15a,16,17,18-hexahydro-1H,9H,15H-4,8-(azeno)-14,10-(metheno)pyrrolo[1,2-c][1,3]diazacycloheptadecin-16-yl]ethanesulfonamide] |  | 84% | 30.8% | 
3 | CCS(=O)(=O)N[C@@H]1[C@@H]2Cc3cccc(c3F)Cc3nc(ccc3C)O[C@@H](C)C(=O)N2CC1(F)F [Example 111, N-[(2S,15aS,16R)-17,17,20-trifluoro-2,7-dimethyl-1-oxo-1,2,15a,16,17,18-hexahydro-9H,15H-4,8-(azeno)-10,14-(metheno)pyrrolo[1,2-d][1,4]oxazacycloheptadecin-16-yl]ethanesulfonamide] |  | 103% |  | 11.8%
